Assay results from patent US10351546B2, “Pyridin-3-yl acetic acid derivatives as inhibitors of human immunodeficiency virus replication” (priority 2015, dated 2019).
Where two headings read alike, the source gives them in different places.

Tested on: NL-RLuc virus
Assay: Inhibition of HIV replication (NL-RLuc luciferase reporter virus in MT-2 cells)
Assay type: cell-based
Conditions: Human immunodeficiency virus 1, MT2, 120 h
Procedure, shortened: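 MT-2 cells were infected with NL4-3-derived virus carrying Renilla luciferase in place of part of nef, in RPMI/10% FBS, with serial compound dilutions. Luciferase read after 5 days of multicycle replication. EC50 from the median effect equation, at least 2 experiments.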

Row | SMILES | EC50 (read-out: Activity) | EC50 (read-out: EC50 μM)
1 | Cc1cc(F)ccc1CN1CCc2cc(-c3c(COC(C)C)nc(C)c([C@H](OC(C)(C)C)C(=O)O)c3N3CCC(C)(C)CC3)ccc2C1 [Example 158, (S)-2-(tert-Butoxy)-2-(4-(4,4-dimethylpiperidin-1-yl)-5-(2-(4-fluoro-2-methylbenzyl)-1,2,3,4-tetrahydroisoquinolin-6-yl)-6-(isopropoxymethyl)-2-methylpyridin-3-yl)acetic acid] | < 0.1 µM | 
2 | CNC(=O)c1nc(C)c([C@H](OC(C)(C)C)C(=O)O)c(N2CCC(C)(C)CC2)c1-c1ccc(OCCc2ccc(F)cc2)cc1 [Example 40, (S)-2-(tert-Butoxy)-2-(4-(4,4-dimethylpiperidin-1-yl)-5-(4-(4-fluorophenethoxy)phenyl)-2-methyl-6-(methylcarbamoyl)pyridin-3-yl)acetic acid] | < 0.1 µM | 
3 | C=Cc1nc(C)c([C@H](OC(C)(C)C)C(=O)O)c(N2CCC(C)(C)CC2)c1-c1ccc(OCCc2ccc(F)cc2)cc1 [Example 61, (S)-2-(tert-Butoxy)-2-(4-(4,4-dimethylpiperidin-1-yl)-5-(4-(4-fluorophenethoxy)phenyl)-2-methyl-6-vinylpyridin-3-yl)acetic acid] | < 0.1 µM | 
4 | Cc1cc(F)ccc1CN1CCc2cc(-c3c(CNCC4CCOCC4)nc(C)c([C@H](OC(C)(C)C)C(=O)O)c3N3CCC(C)(C)CC3)ccc2C1 [Example 127, (S)-2-(tert-Butoxy)-2-(4-(4,4-dimethylpiperidin-1-yl)-5-(2-(4-fluoro-2-methylbenzyl)-1,2,3,4-tetrahydroisoquinolin-6-yl)-2-methyl-6-((((tetrahydro-2H-pyran-4-yl)methyl)amino)methyl)pyridin-3-yl)acetic acid] | < 0.1 µM | 
5 | CC(=O)Nc1nc(C)c([C@H](OC(C)(C)C)C(=O)O)c(N2CCC(C)(C)CC2)c1-c1ccc(OCCc2ccc(F)cc2)cc1 [Example 47, (S)-2-(6-Acetamido-4-(4,4-dimethylpiperidin-1-yl)-5-(4-(4-fluorophenethoxy)phenyl)-2-methylpyridin-3-yl)-2-(tert-butoxy)acetic acid] | < 0.1 µM | 
6 | Cc1nc(COCc2ncco2)c(-c2ccc(OCCc3ccc(F)cc3)cc2)c(N2CCC(C)(C)CC2)c1[C@H](OC(C)(C)C)C(=O)O [Example 14, (S)-2-(tert-Butoxy)-2-(4-(4,4-dimethylpiperidin-1-yl)-5-(4-(4-fluorophenethoxy)phenyl)-2-methyl-6-((oxazol-2-ylmethoxy)methyl)pyridin-3-yl)acetic acid] | < 0.1 µM | 
7 | Cc1cc(F)ccc1CN1CCc2cc(-c3c(CN4CC[C@@H](F)C4)nc(C)c([C@H](OC(C)(C)C)C(=O)O)c3N3CCC(C)(C)CC3)ccc2C1 [Example 133, (S)-2-(tert-Butoxy)-2-(4-(4,4-dimethylpiperidin-1-yl)-5-(2-(4-fluoro-2-methylbenzyl)-1,2,3,4-tetrahydroisoquinolin-6-yl)-6-(((R)-3-fluoropyrrolidin-1-yl)methyl)-2-methylpyridin-3-yl)acetic acid] | < 0.1 µM | 
8 | Cc1nc(O)c(-c2ccc(OCCc3ccc(F)cc3)cc2)c(N2CCC(C)(C)CC2)c1[C@H](OC(C)(C)C)C(=O)O (single isomer, unassigned) [Example 50] | < 0.1 µM | 
9 | Cc1cc(F)ccc1CN1CCc2cc(-c3c(CN4CCC(F)CC4)nc(C)c([C@H](OC(C)(C)C)C(=O)O)c3N3CCC(C)(C)CC3)ccc2C1 [Example 130, (S)-2-(tert-Butoxy)-2-(4-(4,4-dimethylpiperidin-1-yl)-5-(2-(4-fluoro-2-methylbenzyl)-1,2,3,4-tetrahydroisoquinolin-6-yl)-6-((4-fluoropiperidin-1-yl)methyl)-2-methylpyridin-3-yl)acetic acid] | < 0.1 µM | 
10 | Cc1nc(NS(C)(=O)=O)c(-c2ccc(OCCc3ccc(F)cc3)cc2)c(N2CCC(C)(C)CC2)c1[C@H](OC(C)(C)C)C(=O)O [Example 48, (S)-2-(tert-Butoxy)-2-(4-(4,4-dimethylpiperidin-1-yl)-5-(4-(4-fluorophenethoxy)phenyl)-2-methyl-6-(methylsulfonamido)pyridin-3-yl)acetic acid] | < 0.1 µM | 
11 | Cc1nc(CN(C)CC2CCCCC2)c(-c2ccc(OCCc3ccc(F)cc3)cc2)c(N2CCC(C)(C)CC2)c1[C@H](OC(C)(C)C)C(=O)O [Example 100, (S)-2-(tert-Butoxy)-2-(6-(((cyclohexylmethyl)(methyl)amino)methyl)-4-(4,4-dimethylpiperidin-1-yl)-5-(4-(4-fluorophenethoxy)phenyl)-2-methylpyridin-3-yl)acetic acid] | < 0.1 µM | 0.003 µM
12 | CCOCCOCc1nc(C)c([C@H](OC(C)(C)C)C(=O)O)c(N2CCC(C)(C)CC2)c1C [Example 36, (S)-2-(tert-Butoxy)-2-(4-(4,4-dimethylpiperidin-1-yl)-6-((2-ethoxyethoxy)methyl)-2,5-dimethylpyridin-3-yl)acetic acid] | < 0.1 µM | 
13 | CSCc1nc(C)c([C@H](OC(C)(C)C)C(=O)O)c(N2CCC(C)(C)CC2)c1-c1ccc(OCCc2ccc(F)cc2)cc1 [Example 17, (S)-2-(tert-Butoxy)-2-(4-(4,4-dimethylpiperidin-1-yl)-5-(4-(4-fluorophenethoxy)phenyl)-2-methyl-6-((methylthio)methyl)pyridin-3-yl)acetic acid] | < 0.1 µM | 
14 | Cc1nc(COCCN2CCS(=O)(=O)CC2)c(-c2ccc(OCCc3ccc(F)cc3)cc2)c(N2CCC(C)(C)CC2)c1[C@H](OC(C)(C)C)C(=O)O [Example 28, (S)-2-(tert-Butoxy)-2-(4-(4,4-dimethylpiperidin-1-yl)-6-((2-(1,1-dioxidothiomorpholino)ethoxy)methyl)-5-(4-(4-fluorophenethoxy)phenyl)-2-methylpyridin-3-yl)acetic acid] | < 0.1 µM | 
15 | COCc1ncc([C@H](OC(C)(C)C)C(=O)O)c(N2CCC(C)(C)CC2)c1-c1ccc(OCCc2ccc(F)cc2)cc1 [Example 183, (S)-2-(tert-Butoxy)-2-(4-(4,4-dimethylpiperidin-1-yl)-5-(4-(4-fluorophenethoxy)phenyl)-6-(methoxymethyl)pyridin-3-yl)acetic acid] | < 0.1 µM | 
16 | Cc1nc(COc2cccc(Cl)c2)c(-c2ccc(OCCc3ccc(F)cc3)cc2)c(N2CCC(C)(C)CC2)c1[C@H](OC(C)(C)C)C(=O)O [Example 15, (S)-2-(tert-Butoxy)-2-(6-((3-chlorophenoxy)methyl)-4-(4,4-dimethylpiperidin-1-yl)-5-(4-(4-fluorophenethoxy)phenyl)-2-methylpyridin-3-yl)acetic acid] | < 0.1 µM | 0.051 µM
17 | Cc1nc(CN2CCS(=O)(=O)CC2)c(-c2ccc(OCCc3ccc(F)cc3)cc2)c(N2CCC(C)(C)CC2)c1[C@H](OC(C)(C)C)C(=O)O [Example 83, (S)-2-(tert-Butoxy)-2-(4-(4,4-dimethylpiperidin-1-yl)-6-((1,1-dioxidothiomorpholino)methyl)-5-(4-(4-fluorophenethoxy)phenyl)-2-methylpyridin-3-yl)acetic acid] | < 0.1 µM | 
18 | CCOCCOCCOCc1nc(C)c(-c2ccc(OCCc3ccc(F)cc3)cc2)c(N2CCC(C)(C)CC2)c1[C@H](OC(C)(C)C)C(=O)O [Example 110, (S)-2-(tert-Butoxy)-2-(4-(4,4-dimethylpiperidin-1-yl)-2-((2-(2-ethoxyethoxy)ethoxy)methyl)-5-(4-(4-fluorophenethoxy)phenyl)-6-methylpyridin-3-yl)acetic acid] | < 0.1 µM | 
19 | Cc1nnc(C(=O)NCc2nc(C)c([C@H](OC(C)(C)C)C(=O)O)c(N3CCC(C)(C)CC3)c2-c2ccc3c(c2)CCN(Cc2ccc(F)cc2C)C3)o1 [Example 141, (S)-2-(tert-Butoxy)-2-(4-(4,4-dimethylpiperidin-1-yl)-5-(2-(4-fluoro-2-methylbenzyl)-1,2,3,4-tetrahydroisoquinolin-6-yl)-2-methyl-6-((5-methyl-1,3,4-oxadiazole-2-carboxamido)methyl)pyridin-3-yl)acetic acid] | < 0.1 µM | 
20 | Cc1nc(CN2CCC(F)(F)CC2)c(-c2ccc(OCCc3ccc(F)cc3)cc2)c(N2CCC(C)(C)CC2)c1[C@H](OC(C)(C)C)C(=O)O [Example 86, (S)-2-(tert-Butoxy)-2-(6-((4,4-difluoropiperidin-1-yl)methyl)-4-(4,4-dimethylpiperidin-1-yl)-5-(4-(4-fluorophenethoxy)phenyl)-2-methylpyridin-3-yl)acetic acid] | < 0.1 µM | 
21 | Cc1nc(CNC(=O)C(=O)N(C)C)c(-c2ccc(OCCc3ccc(F)cc3)cc2)c(N2CCC(C)(C)CC2)c1[C@H](OC(C)(C)C)C(=O)O [Example 105, (S)-2-(tert-Butoxy)-2-(6-((2-(dimethylamino)-2-oxoacetamido)methyl)-4-(4,4-dimethylpiperidin-1-yl)-5-(4-(4-fluorophenethoxy)phenyl)-2-methylpyridin-3-yl)acetic acid] | < 0.1 µM | 
22 | Cc1nc(CNCc2ccccc2)c(-c2ccc(OCCc3ccc(F)cc3)cc2)c(N2CCC(C)(C)CC2)c1[C@H](OC(C)(C)C)C(=O)O [Example 72, (S)-2-(6-((Benzylamino)methyl)-4-(4,4-dimethylpiperidin-1-yl)-5-(4-(4-fluorophenethoxy)phenyl)-2-methylpyridin-3-yl)-2-(tert-butoxy)acetic acid] | < 0.1 µM | 
23 | COc1ccc(Cc2nc(C)c([C@H](OC(C)(C)C)C(=O)O)c(N3CCC(C)(C)CC3)c2-c2ccc(OCCc3ccc(F)cc3)cc2)cc1 [Example 60, (S)-2-(tert-Butoxy)-2-(4-(4,4-dimethylpiperidin-1-yl)-5-(4-(4-fluorophenethoxy)phenyl)-6-(4-methoxybenzyl)-2-methylpyridin-3-yl)acetic acid] | < 0.1 µM | 
24 | Cc1cccc(Cl)c1CN1CCc2cc(-c3c(CO)nc(C)c([C@H](OC(C)(C)C)C(=O)O)c3N3CCC(C)(C)CC3)ccc2C1 [Example 165, (S)-2-(tert-butoxy)-2-(5-(2-(2-chloro-6-methylbenzyl)-1,2,3,4-tetrahydroisoquinolin-6-yl)-4-(4,4-dimethylpiperidin-1-yl)-6-(hydroxymethyl)-2-methylpyridin-3-yl)acetic acid] | < 0.1 µM | 
